From article PMC10412597, “Small molecule branched-chain ketoacid dehydrogenase kinase (BDK) inhibitors with opposing effects on BDK protein levels” (Nature Communications, 2023)

How the values were obtained:
Parameters in all cases: Invitrogen kinase panel, per cent inhibition of kinase activity
CDK2/Cyclin-A = CDK2/Cyclin-A (Homo sapiens, UniProt P24941); details: 10 µM, inhibitor
Procedure: (§1) To discover a potent and selective BDK inhibitor, a subset of the Pfizer compound collection was screened. […] Off target activity was assessed in both CEREP and kinase panels (Supplementary Tables 2, 3).

CSK tyrosine Kinase = CSK tyrosine Kinase (Homo sapiens, UniProt P41240); details: 10 µM, inhibitor
Sequence of CSK tyrosine Kinase (P41240 whole entry): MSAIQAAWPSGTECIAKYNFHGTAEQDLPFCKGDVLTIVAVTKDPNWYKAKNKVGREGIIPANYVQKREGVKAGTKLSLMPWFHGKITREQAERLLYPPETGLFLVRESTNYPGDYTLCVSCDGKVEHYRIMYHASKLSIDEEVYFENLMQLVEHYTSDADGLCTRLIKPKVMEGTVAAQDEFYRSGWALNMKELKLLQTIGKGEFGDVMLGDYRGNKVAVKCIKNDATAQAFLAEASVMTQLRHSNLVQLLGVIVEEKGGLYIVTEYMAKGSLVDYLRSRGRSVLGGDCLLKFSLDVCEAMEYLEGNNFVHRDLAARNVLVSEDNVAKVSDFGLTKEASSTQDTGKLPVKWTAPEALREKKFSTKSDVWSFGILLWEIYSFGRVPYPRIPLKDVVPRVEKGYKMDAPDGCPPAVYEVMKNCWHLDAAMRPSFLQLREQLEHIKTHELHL
In short: (§2)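 These are secondary selectivity data for BDK inhibitors, taken from kinase panels.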

IRAK4 = target: T1, IRAK4 (Homo sapiens, UniProt Q9NWZ3); details: 10 µM, inhibitor
T1 sequence (Q9NWZ3 1-460): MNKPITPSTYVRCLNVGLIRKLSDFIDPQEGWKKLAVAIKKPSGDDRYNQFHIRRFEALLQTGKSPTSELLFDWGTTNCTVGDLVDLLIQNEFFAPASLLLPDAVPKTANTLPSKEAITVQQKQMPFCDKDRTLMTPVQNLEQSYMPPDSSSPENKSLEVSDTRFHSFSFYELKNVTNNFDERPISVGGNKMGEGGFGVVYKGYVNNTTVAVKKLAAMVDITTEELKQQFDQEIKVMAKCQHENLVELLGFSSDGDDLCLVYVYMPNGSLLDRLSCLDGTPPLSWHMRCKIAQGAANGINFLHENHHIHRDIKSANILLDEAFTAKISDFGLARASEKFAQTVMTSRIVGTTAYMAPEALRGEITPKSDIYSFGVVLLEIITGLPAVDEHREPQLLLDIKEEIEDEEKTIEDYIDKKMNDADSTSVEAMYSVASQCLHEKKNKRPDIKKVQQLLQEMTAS
Procedure: as §1

MEK1 = target: T2, MEK1 (Homo sapiens, UniProt Q02750); details: 10 µM, inhibitor
T2 construct: gene MAP2K1
T2 sequence (Q02750 whole entry): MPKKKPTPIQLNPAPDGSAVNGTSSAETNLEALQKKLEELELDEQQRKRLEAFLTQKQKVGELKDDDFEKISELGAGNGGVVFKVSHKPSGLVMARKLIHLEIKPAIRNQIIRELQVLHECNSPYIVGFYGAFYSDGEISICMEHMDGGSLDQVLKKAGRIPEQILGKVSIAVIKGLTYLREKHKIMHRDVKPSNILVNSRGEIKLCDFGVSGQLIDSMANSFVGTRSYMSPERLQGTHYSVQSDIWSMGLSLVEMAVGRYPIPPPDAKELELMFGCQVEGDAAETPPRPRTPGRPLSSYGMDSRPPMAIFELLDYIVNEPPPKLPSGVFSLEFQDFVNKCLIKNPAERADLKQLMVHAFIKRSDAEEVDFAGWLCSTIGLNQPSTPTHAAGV
Procedure: as §1

NEK6 = NEK6 (Homo sapiens, UniProt Q9HC98); details: 10 µM, inhibitor
Sequence of NEK6 (Q9HC98 whole entry): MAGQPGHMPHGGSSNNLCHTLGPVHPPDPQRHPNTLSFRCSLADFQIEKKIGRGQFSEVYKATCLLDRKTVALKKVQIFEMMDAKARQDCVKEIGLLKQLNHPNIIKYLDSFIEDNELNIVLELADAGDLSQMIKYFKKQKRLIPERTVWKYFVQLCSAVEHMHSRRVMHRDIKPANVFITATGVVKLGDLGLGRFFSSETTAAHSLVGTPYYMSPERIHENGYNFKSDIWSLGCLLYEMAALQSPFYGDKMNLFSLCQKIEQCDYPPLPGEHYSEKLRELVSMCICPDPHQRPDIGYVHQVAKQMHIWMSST
In short: as §2

PDPK1 = target: T3, PDPK1 (Homo sapiens, UniProt O15530); details: 10 µM, inhibitor
T3 sequence (O15530 1-556): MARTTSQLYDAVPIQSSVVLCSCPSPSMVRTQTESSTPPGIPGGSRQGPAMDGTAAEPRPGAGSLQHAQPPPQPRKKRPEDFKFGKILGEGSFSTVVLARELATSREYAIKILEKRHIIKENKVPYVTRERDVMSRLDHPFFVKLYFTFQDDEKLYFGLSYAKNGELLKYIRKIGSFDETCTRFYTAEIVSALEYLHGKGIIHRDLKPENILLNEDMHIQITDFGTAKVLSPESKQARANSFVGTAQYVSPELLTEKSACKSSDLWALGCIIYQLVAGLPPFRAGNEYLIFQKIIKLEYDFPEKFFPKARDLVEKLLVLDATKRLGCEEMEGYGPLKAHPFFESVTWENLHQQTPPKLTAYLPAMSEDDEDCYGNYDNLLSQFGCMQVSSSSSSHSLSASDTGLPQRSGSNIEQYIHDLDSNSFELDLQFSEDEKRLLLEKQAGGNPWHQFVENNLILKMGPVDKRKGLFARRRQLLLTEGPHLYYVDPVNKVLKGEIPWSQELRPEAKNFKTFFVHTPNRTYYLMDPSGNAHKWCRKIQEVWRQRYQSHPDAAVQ
Procedure: as §1

PIK3C2B = PIK3C2B (Homo sapiens, UniProt O00750); details: inhibitor
Procedure: as §1

PIK3C3 = PIK3C3 (Homo sapiens, UniProt Q8NEB9); details: 10 µM, inhibitor
Sequence of PIK3C3 (Q8NEB9 whole entry): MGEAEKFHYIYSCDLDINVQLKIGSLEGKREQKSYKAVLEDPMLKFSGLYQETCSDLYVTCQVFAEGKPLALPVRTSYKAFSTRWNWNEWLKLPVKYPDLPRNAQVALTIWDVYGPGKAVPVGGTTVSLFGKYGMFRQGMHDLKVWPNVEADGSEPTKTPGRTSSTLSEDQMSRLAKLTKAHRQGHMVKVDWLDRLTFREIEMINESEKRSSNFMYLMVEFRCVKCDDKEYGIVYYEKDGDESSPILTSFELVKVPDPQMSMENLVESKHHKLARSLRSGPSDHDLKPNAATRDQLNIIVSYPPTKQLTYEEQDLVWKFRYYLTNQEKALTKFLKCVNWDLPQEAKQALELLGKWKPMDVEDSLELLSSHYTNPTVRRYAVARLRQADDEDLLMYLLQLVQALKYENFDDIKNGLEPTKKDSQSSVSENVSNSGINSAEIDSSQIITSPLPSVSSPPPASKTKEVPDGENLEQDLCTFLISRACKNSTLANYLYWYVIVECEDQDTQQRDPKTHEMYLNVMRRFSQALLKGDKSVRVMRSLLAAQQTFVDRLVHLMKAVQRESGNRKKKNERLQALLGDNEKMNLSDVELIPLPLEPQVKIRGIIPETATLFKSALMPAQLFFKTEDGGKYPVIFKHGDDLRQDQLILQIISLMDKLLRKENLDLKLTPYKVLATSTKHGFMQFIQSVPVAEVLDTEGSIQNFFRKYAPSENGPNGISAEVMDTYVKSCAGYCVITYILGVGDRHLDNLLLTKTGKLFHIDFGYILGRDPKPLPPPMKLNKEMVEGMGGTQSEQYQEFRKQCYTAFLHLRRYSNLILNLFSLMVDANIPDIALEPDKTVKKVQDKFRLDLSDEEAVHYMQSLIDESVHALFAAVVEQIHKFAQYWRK
In short: as §2

PIK3CG = PIK3CG (Homo sapiens, UniProt P48736); details: 10 µM, inhibitor
Sequence of PIK3CG (P48736 whole entry): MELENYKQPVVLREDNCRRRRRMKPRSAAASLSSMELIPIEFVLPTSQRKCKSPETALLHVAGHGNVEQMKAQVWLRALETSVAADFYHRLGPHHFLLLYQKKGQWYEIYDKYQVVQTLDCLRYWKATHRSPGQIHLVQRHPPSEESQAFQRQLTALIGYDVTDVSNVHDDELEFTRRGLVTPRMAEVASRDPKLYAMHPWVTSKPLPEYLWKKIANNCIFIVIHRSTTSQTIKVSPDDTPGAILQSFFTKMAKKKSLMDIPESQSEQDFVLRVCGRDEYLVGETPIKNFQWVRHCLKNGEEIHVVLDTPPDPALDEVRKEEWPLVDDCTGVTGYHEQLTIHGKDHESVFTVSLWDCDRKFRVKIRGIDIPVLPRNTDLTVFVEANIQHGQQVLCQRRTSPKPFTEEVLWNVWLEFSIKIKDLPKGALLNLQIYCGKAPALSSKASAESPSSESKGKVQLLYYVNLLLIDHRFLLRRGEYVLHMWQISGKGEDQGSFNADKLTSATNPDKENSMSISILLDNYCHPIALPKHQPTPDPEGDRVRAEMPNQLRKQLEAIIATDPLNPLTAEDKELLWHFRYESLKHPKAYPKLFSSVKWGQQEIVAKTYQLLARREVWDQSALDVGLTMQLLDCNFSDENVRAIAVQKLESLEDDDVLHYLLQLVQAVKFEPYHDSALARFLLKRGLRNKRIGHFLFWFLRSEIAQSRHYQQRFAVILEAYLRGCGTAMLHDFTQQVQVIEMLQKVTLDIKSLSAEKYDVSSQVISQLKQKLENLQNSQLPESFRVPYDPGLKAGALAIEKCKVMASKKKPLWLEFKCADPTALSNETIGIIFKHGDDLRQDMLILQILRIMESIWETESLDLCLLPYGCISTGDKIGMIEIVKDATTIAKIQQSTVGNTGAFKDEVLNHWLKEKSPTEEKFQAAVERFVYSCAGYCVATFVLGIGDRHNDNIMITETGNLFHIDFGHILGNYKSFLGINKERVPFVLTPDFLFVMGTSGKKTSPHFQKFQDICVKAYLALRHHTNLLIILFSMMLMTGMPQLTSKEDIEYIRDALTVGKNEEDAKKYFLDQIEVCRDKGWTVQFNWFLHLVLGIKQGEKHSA
In short: as §2

PIM-1 = target: T4, PIM-1 (Homo sapiens, UniProt P11309); details: 10 µM, inhibitor
T4 construct: gene PIM1
T4 sequence (P11309 whole entry): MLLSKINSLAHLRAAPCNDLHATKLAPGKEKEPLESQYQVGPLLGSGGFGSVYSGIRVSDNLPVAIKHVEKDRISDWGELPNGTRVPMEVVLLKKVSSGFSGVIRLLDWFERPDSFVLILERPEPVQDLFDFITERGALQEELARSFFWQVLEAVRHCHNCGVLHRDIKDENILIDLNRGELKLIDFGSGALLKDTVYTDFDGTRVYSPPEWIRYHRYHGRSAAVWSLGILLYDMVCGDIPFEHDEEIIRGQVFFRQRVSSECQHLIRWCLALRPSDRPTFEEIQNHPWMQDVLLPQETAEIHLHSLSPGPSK
In short: as §2

SGK1 = target: T5, SGK1 (Homo sapiens, UniProt O00141); details: 10 µM, inhibitor
T5 sequence (O00141 1-431): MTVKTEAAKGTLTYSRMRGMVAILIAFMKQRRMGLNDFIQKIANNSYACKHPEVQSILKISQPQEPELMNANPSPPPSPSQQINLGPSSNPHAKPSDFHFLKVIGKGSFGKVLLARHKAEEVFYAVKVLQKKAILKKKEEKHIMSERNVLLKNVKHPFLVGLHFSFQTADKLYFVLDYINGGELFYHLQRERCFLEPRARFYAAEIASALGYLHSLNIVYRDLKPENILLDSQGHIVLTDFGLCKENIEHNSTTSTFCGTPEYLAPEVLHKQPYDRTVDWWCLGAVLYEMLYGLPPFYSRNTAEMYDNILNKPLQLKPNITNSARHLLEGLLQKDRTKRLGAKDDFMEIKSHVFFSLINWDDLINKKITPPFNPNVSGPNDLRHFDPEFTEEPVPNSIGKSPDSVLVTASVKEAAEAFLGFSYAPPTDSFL
Procedure: as §1

O=C(O)c1sc2cc(F)sc2c1Cl [PF-07208254, 3-chloro-5-fluorothieno[3,2-b]thiophene-2-carboxylic acid]
ATP = 1 mM % Inhibition PF-07208254 (CDK2/Cyclin-A): -1.2%
ATP = Km % Inhibition PF-07208254 (CDK2/Cyclin-A): 14.6%
ATP = Km % Inhibition PF-07208254 (CSK tyrosine Kinase): 2.9%
ATP = 1 mM % Inhibition PF-07208254 (IRAK4): -2.1%
ATP = Km % Inhibition PF-07208254 (IRAK4): 6.2%
ATP = 100 uM % Inhibition PF-07208254 (MEK1): 4.1%
ATP = Km % Inhibition PF-07208254 (NEK6): 7.1%
ATP = 1 mM % Inhibition PF-07208254 (PDPK1): -3.1%
ATP = Km % Inhibition PF-07208254 (PDPK1): -3.2%
ATP = 10 uM % Inhibition PF-07208254 (PIK3C2B): 3.5%
ATP = Km % Inhibition PF-07208254 (PIK3C3): 7.3%
ATP = Km % Inhibition PF-07208254 (PIK3CG): 4.8%
ATP = Km % Inhibition PF-07208254 (PIM-1): 44.5%
ATP = 1 mM % Inhibition PF-07208254 (SGK1): 1.9%
ATP = Km % Inhibition PF-07208254 (SGK1): -0.1%

CCC1(COc2ccc(-c3csc(-c4ccccc4C(=O)O)n3)cn2)CC1 [PF-07247685, 2-(4-{6-[(1-ethylcyclopropyl)methoxy]pyridin-3-yl}-1,3-thiazol-2-yl)benzoic acid]
ATP = 1 mM % Inhibition PF-07247685 (CDK2/Cyclin-A): -1.4%
ATP = Km % Inhibition PF-07247685 (CDK2/Cyclin-A): 1.2%
ATP = Km % Inhibition PF-07247685 (CSK tyrosine Kinase): 4.3%
ATP = 1 mM % Inhibition PF-07247685 (IRAK4): 2.9%
ATP = Km % Inhibition PF-07247685 (IRAK4): -0.9%
ATP = 100 uM % Inhibition PF-07247685 (MEK1): 11.2%
ATP = Km % Inhibition PF-07247685 (NEK6): 1.2%
ATP = 1 mM % Inhibition PF-07247685 (PDPK1): 2.0%
ATP = Km % Inhibition PF-07247685 (PDPK1): -0.6%
ATP = 10 uM % Inhibition PF-07247685 (PIK3C2B): 2.0%
ATP = Km % Inhibition PF-07247685 (PIK3C3): 3.0%
ATP = Km % Inhibition PF-07247685 (PIK3CG): -4.6%
ATP = Km % Inhibition PF-07247685 (PIM-1): -2.6%
ATP = 1 mM % Inhibition PF-07247685 (SGK1): -5.1%
ATP = Km % Inhibition PF-07247685 (SGK1): 0.7%
